Source: article PMC6522510 (Nature Communications, 2019)
Where two headings read alike, the source gives them in different places.

How the values were obtained:
Set-up in all cases: species or system AML cell lines (8); Primary HTS, single concentration about 10 uM, Cell Titer Glo viability; log10 luminescence, per cent inhibition relative to cycloheximide control
Details in all cases: 72 h, relative to cycloheximide control, log10 luminescence, inhibitor
[1] = tested on: MOLM-13
[2] = tested on: U937
[3] = tested on: M07e
[4] = tested on: CHRF288-11
[5] = tested on: MV4-11
[6] = tested on: CMK
[7] = tested on: ML-2
[8] = tested on: CMS

CN1CCC(C(=O)Nc2n[nH]c3nnc(-c4ccccc4)cc23)CC1 [SJ000573074-1, JW48822-132A0]
MOLM-13 %inh [1]: 8.108% | U937 %inh [2]: 1.724% | M07e %inh [3]: 2.861% | CHRF288-11 %inh [4]: 65.15% | MV4-11 %inh [5]: 34.03% | CMK %inh [6]: 70.18% | ML-2 %inh [7]: 3.693% | CMS %inh [8]: 83.36%

C#Cc1cccc(Nc2ncnc3ccc(OCCCCNCCS(C)(=O)=O)cc23)c1 [SJ000573075-1, U14819/194/1]
MOLM-13 %inh [1]: 9.087% | U937 %inh [2]: -0.213% | M07e %inh [3]: -0.9936% | CHRF288-11 %inh [4]: 4.443% | MV4-11 %inh [5]: -0.7985% | CMK %inh [6]: 9.032% | ML-2 %inh [7]: 4.028% | CMS %inh [8]: 3.196%

O=C1Nc2ccc(C(=O)c3ccco3)cc2C1=Cc1cc(Cl)c(O)c(Cl)c1 [SJ000573076-1, U12068/71/3]
MOLM-13 %inh [1]: 0.2179% | U937 %inh [2]: -1.189% | M07e %inh [3]: 2.097% | CHRF288-11 %inh [4]: 1.037% | MV4-11 %inh [5]: 1.256% | CMK %inh [6]: -2.763% | ML-2 %inh [7]: 3.323% | CMS %inh [8]: 3.176%

Cc1ccc2c(-c3ccnc(Nc4ccccc4)n3)c(-c3ccc(F)cc3)nn2n1 [SJ000573077-1, U18020/155/1]
MOLM-13 %inh [1]: -1.366% | U937 %inh [2]: 0.3541% | M07e %inh [3]: 7.072% | CHRF288-11 %inh [4]: 5.564% | MV4-11 %inh [5]: -0.5842% | CMK %inh [6]: 0.5232% | ML-2 %inh [7]: 0.6284% | CMS %inh [8]: 18.56%

COc1ccc(-c2nn3ncccc3c2-c2ccnc(Nc3ccc4c(c3)OCCO4)n2)cc1 [SJ000573078-1, U17838/181/2]
MOLM-13 %inh [1]: 3.964% | U937 %inh [2]: 3.638% | M07e %inh [3]: 5.255% | CHRF288-11 %inh [4]: 4.025% | MV4-11 %inh [5]: -0.1391% | CMK %inh [6]: -0.1559% | ML-2 %inh [7]: 1.307% | CMS %inh [8]: 4.836%

COc1ccc(-c2nn3ncccc3c2-c2ccnc(Nc3cccc(C(F)(F)F)c3)n2)cc1 [SJ000573079-1, U17838/180/3]
MOLM-13 %inh [1]: 3.38% | U937 %inh [2]: 2.119% | M07e %inh [3]: 14.72% | CHRF288-11 %inh [4]: 5.707% | MV4-11 %inh [5]: 8.211% | CMK %inh [6]: 4.001% | ML-2 %inh [7]: -0.6403% | CMS %inh [8]: 13.73%

FC(F)(F)c1cccc(-c2nn3ncccc3c2-c2ccnc(Nc3ccc4c(c3)OCCO4)n2)c1 [SJ000573080-1, U18020/138/1]
MOLM-13 %inh [1]: 3.832% | U937 %inh [2]: 3.041% | M07e %inh [3]: -0.1766% | CHRF288-11 %inh [4]: 0.7655% | MV4-11 %inh [5]: 2.308% | CMK %inh [6]: 6.614% | ML-2 %inh [7]: 2.472% | CMS %inh [8]: 2.426%

Fc1ccc(-c2nn3ncccc3c2-c2ccnc(Nc3ccc4c(c3)OCCO4)n2)cc1 [SJ000573081-1, U18020/136/2]
MOLM-13 %inh [1]: 1.143% | U937 %inh [2]: 35.33% | M07e %inh [3]: 1.748% | CHRF288-11 %inh [4]: 0.4339% | MV4-11 %inh [5]: 14.42% | CMK %inh [6]: 3.915% | ML-2 %inh [7]: -1.741% | CMS %inh [8]: 13.71%

NC(=O)c1cc(-c2ccncc2)cc(-c2ccccc2)c1N [SJ000573082-1, R11976/162/1]
MOLM-13 %inh [1]: 11% | U937 %inh [2]: 14.29% | M07e %inh [3]: -1.265% | CHRF288-11 %inh [4]: 4.55% | MV4-11 %inh [5]: 10.06% | CMK %inh [6]: 2.399% | ML-2 %inh [7]: -0.3373% | CMS %inh [8]: 3.949%

CC1=C(C(=O)Nc2ccc3[nH]ncc3c2)C(c2ccc(F)cc2)N=C(c2ccc(C(F)(F)F)nc2)N1 (stereo not drawn) [SJ000573083-1, GW204431-043A1]
MOLM-13 %inh [1]: 1.317% | U937 %inh [2]: -1.3% | M07e %inh [3]: 0.1515% | CHRF288-11 %inh [4]: 5.88% | MV4-11 %inh [5]: 0.5281% | CMK %inh [6]: 6.755% | ML-2 %inh [7]: 3.386% | CMS %inh [8]: -1.221%

NS(=O)(=O)c1ccc(-c2cc3ccncc3cc2OCc2ccccc2)cc1 [SJ000573084-1, R12606/136/38]
MOLM-13 %inh [1]: 2.161% | U937 %inh [2]: 0.3678% | M07e %inh [3]: 5.451% | CHRF288-11 %inh [4]: 3.946% | MV4-11 %inh [5]: -2.181% | CMK %inh [6]: -0.9682% | ML-2 %inh [7]: 1.187% | CMS %inh [8]: 4.611%

CCCNc1cccc(-n2ncc3c(N/N=C/c4ccncc4)ncnc32)c1 [SJ000573085-1, U17680/65/1]
MOLM-13 %inh [1]: -1.209% | U937 %inh [2]: -0.2236% | M07e %inh [3]: 4.312% | CHRF288-11 %inh [4]: 2.576% | MV4-11 %inh [5]: -0.4908% | CMK %inh [6]: 0.2304% | ML-2 %inh [7]: -0.9551% | CMS %inh [8]: 0.7041%

CN1CCC(C(=O)Nc2n[nH]c3nc(-c4ccc(O)cc4)c(Br)cc23)CC1 [SJ000573086-1, RW100084-040A1 | AN100368-077A1]
MOLM-13 %inh ([1]; MOLM-13 %inh, 10 µM): 112.8% | U937 %inh ([2]; U937 %inh, 10 µM): 86.11% | M07e %inh ([3]; M07e %inh, 10 µM): 88.26% | CHRF288-11 %inh ([4]; CHRF288-11 %inh, 10 µM): 69.8% | MV4-11 %inh ([5]; MV4-11 %inh, 10 µM): 81.01% | CMK %inh ([6]; CMK %inh, 10 µM): 70.81% | ML-2 %inh ([7]; ML-2 %inh, 10 µM): 63.69% | CMS %inh ([8]; CMS %inh, 10 µM): 85%

CN1CCC(C(=O)Nc2n[nH]c3nc(-c4ccc(O)cc4)c(Br)cc23)CC1 [SJ000573086-2, RW100084-040A1 | AN100368-077A1]
MOLM-13 %inh ([1]; MOLM-13 %inh, 10 µM): 108.5% | U937 %inh ([2]; U937 %inh, 10 µM): 85.17% | M07e %inh ([3]; M07e %inh, 10 µM): 63.44% | CHRF288-11 %inh ([4]; CHRF288-11 %inh, 10 µM): 68.5% | MV4-11 %inh ([5]; MV4-11 %inh, 10 µM): 86.37% | CMK %inh ([6]; CMK %inh, 10 µM): 69.83% | ML-2 %inh ([7]; ML-2 %inh, 10 µM): 61.94% | CMS %inh ([8]; CMS %inh, 10 µM): 94.2%

CCC(=O)Nc1ccc(C)c(-c2ccc(C(=O)NCC3CC3)cc2)c1 [SJ000573087-1, R7387/20/4]
MOLM-13 %inh [1]: 6.641% | U937 %inh [2]: 1.348% | M07e %inh [3]: 5.006% | CHRF288-11 %inh [4]: 3.258% | MV4-11 %inh [5]: 5.047% | CMK %inh [6]: 1.803% | ML-2 %inh [7]: -0.3215% | CMS %inh [8]: 2.476%

COc1ccc(-c2ccc3c(NC(=O)C4CC4)n[nH]c3n2)cc1 [SJ000573088-1, BS100048-058B1]
MOLM-13 %inh [1]: 4.236% | U937 %inh [2]: 1.777% | M07e %inh [3]: -1.122% | CHRF288-11 %inh [4]: -3.869% | MV4-11 %inh [5]: -0.1427% | CMK %inh [6]: 5.626% | ML-2 %inh [7]: 1.731% | CMS %inh [8]: -1.884%

CN1CCN(Cc2ccc(-c3cc4ncnc(Nc5ccc(OCc6cccc(F)c6)c(Cl)c5)c4s3)o2)CC1 [SJ000573089-1, U17540/68/2]
MOLM-13 %inh [1]: 4.975% | U937 %inh [2]: 9.435% | M07e %inh [3]: -2.246% | CHRF288-11 %inh [4]: 89.11% | MV4-11 %inh [5]: 5.617% | CMK %inh [6]: 14.44% | ML-2 %inh [7]: -0.8811% | CMS %inh [8]: 6.304%

COc1cc2ncnc(Nc3ccc(C)c(O)c3)c2cc1OC [SJ000573090-1, U13103/179/1]
MOLM-13 %inh [1]: 7.874% | U937 %inh [2]: 0.4968% | M07e %inh [3]: -0.2224% | CHRF288-11 %inh [4]: 0.5463% | MV4-11 %inh [5]: 0.6335% | CMK %inh [6]: 1.416% | ML-2 %inh [7]: -3.545% | CMS %inh [8]: 0.3431%

Cc1cc(O)cc(C)c1/C=C/c1cncc(C(=O)OC(C)(C)C)c1 [SJ000573091-1, U11962/36/1]
MOLM-13 %inh [1]: 2.429% | U937 %inh [2]: -1.9% | M07e %inh [3]: -1.025% | CHRF288-11 %inh [4]: -1.68% | MV4-11 %inh [5]: 1.728% | CMK %inh [6]: 2.193% | ML-2 %inh [7]: -0.1273% | CMS %inh [8]: -1.844%

c1cc(-c2cnn3nc(N4CCOCC4)ccc23)nc(NC2CC2)n1 [SJ000573092-1, U17157/98/7]
MOLM-13 %inh [1]: 12.47% | U937 %inh [2]: 4.896% | M07e %inh [3]: 1.021% | CHRF288-11 %inh [4]: -0.2849% | MV4-11 %inh [5]: 16.51% | CMK %inh [6]: -4.251% | ML-2 %inh [7]: 1.098% | CMS %inh [8]: -2.802%

CS(=O)(=O)CCNCc1ccc(-c2ccc3ncnc(Nc4ccc(OCc5ccccc5)cc4)c3c2)o1 [SJ000573093-1, R1325/200/3]
MOLM-13 %inh [1]: 25.45% | U937 %inh [2]: -1.059% | M07e %inh [3]: 6.213% | CHRF288-11 %inh [4]: 1.417% | MV4-11 %inh [5]: 19.4% | CMK %inh [6]: 1.449% | ML-2 %inh [7]: 1.913% | CMS %inh [8]: 0.8735%
